Assay results taken from ChEMBL document CHEMBL3352031, “Discovery of diamine-linked 17-aroylamido-17-demethoxygeldanamycins as potent Hsp90 inhibitors” (Eur J Med Chem, 2014).

tested on: MDA-MB-231; test: cells; details: Homo sapiens, MDA-MB-231, 72 h
Description: Cytotoxicity against human MDA-MB-231 cells after 72 hrs by MTT assay

Row | Compound | IC50 [nM]
1 | CO[C@H]1/C=C\C=C(/C)C(=O)NC2=CC(=O)C(NCCCCCCNC(=O)/C=C/c3ccc(N(C)C)cc3)=C(C[C@@H](C)C[C@H](OC)[C@H](O)[C@@H](C)/C=C(\C)[C@@H]1OC(N)=O)C2=O | 2110
2 | CO[C@H]1/C=C\C=C(/C)C(=O)NC2=CC(=O)C(NCCCCNC(=O)c3cccnc3)=C(C[C@@H](C)C[C@H](OC)[C@H](O)[C@@H](C)/C=C(\C)[C@@H]1OC(N)=O)C2=O | 4090
3 | CO[C@H]1/C=C\C=C(/C)C(=O)NC2=CC(=O)C(NCCCCCCNC(=O)/C=C/c3cccc(O)c3)=C(C[C@@H](C)C[C@H](OC)[C@H](O)[C@@H](C)/C=C(\C)[C@@H]1OC(N)=O)C2=O | 1240
4 | CO[C@H]1/C=C\C=C(/C)C(=O)NC2=CC(=O)C(NCCCCCCNC(=O)c3ccccn3)=C(C[C@@H](C)C[C@H](OC)[C@H](O)[C@@H](C)/C=C(\C)[C@@H]1OC(N)=O)C2=O | 1730
5 | CO[C@H]1/C=C\C=C(/C)C(=O)NC2=CC(=O)C(NCCCCCCNC(=O)c3ccncc3)=C(C[C@@H](C)C[C@H](OC)[C@H](O)[C@@H](C)/C=C(\C)[C@@H]1OC(N)=O)C2=O | 890
6 | CO[C@H]1/C=C\C=C(/C)C(=O)NC2=CC(=O)C(NCCCCCCNC(=O)c3ccc(F)cc3)=C(C[C@@H](C)C[C@H](OC)[C@H](O)[C@@H](C)/C=C(\C)[C@@H]1OC(N)=O)C2=O | 4160
7 | CO[C@H]1/C=C\C=C(/C)C(=O)NC2=CC(=O)C(NCCCCCCNC(=O)/C=C/c3cccc(Cl)c3)=C(C[C@@H](C)C[C@H](OC)[C@H](O)[C@@H](C)/C=C(\C)[C@@H]1OC(N)=O)C2=O | 5230
8 | CO[C@H]1/C=C\C=C(/C)C(=O)NC2=CC(=O)C(NCCCCNC(=O)c3ccccn3)=C(C[C@@H](C)C[C@H](OC)[C@H](O)[C@@H](C)/C=C(\C)[C@@H]1OC(N)=O)C2=O | 3140
9 | CO[C@H]1/C=C\C=C(/C)C(=O)NC2=CC(=O)C(NCC3CCN(C(=O)c4ccncc4)CC3)=C(C[C@@H](C)C[C@H](OC)[C@H](O)[C@@H](C)/C=C(\C)[C@@H]1OC(N)=O)C2=O | 2840
10 | CO[C@H]1/C=C\C=C(/C)C(=O)NC2=CC(=O)C(NCC3CCN(C(=O)c4ccccn4)CC3)=C(C[C@@H](C)C[C@H](OC)[C@H](O)[C@@H](C)/C=C(\C)[C@@H]1OC(N)=O)C2=O | 1120
11 | CO[C@H]1/C=C\C=C(/C)C(=O)NC2=CC(=O)C(NCCCCCCNC(=O)/C=C/c3ccc(O)c(O)c3)=C(C[C@@H](C)C[C@H](OC)[C@H](O)[C@@H](C)/C=C(\C)[C@@H]1OC(N)=O)C2=O | 3930
12 | CO[C@H]1/C=C\C=C(/C)C(=O)NC2=CC(=O)C(NCCCCCCNC(=O)c3nc(C)c(C)nc3C)=C(C[C@@H](C)C[C@H](OC)[C@H](O)[C@@H](C)/C=C(\C)[C@@H]1OC(N)=O)C2=O | 3120
13 | CO[C@H]1/C=C\C=C(/C)C(=O)NC2=CC(=O)C(NCCCCNC(=O)c3nc(C)c(C)nc3C)=C(C[C@@H](C)C[C@H](OC)[C@H](O)[C@@H](C)/C=C(\C)[C@@H]1OC(N)=O)C2=O | 8450
14 | CO[C@H]1/C=C\C=C(/C)C(=O)NC2=CC(=O)C(NCCCCCCNC(=O)/C=C/c3ccc(C)cc3)=C(C[C@@H](C)C[C@H](OC)[C@H](O)[C@@H](C)/C=C(\C)[C@@H]1OC(N)=O)C2=O | 3960
15 | CO[C@H]1/C=C\C=C(/C)C(=O)NC2=CC(=O)C(NCC3CCN(C(=O)c4cnc(C)c(C)n4)CC3)=C(C[C@@H](C)C[C@H](OC)[C@H](O)[C@@H](C)/C=C(\C)[C@@H]1OC(N)=O)C2=O | 2330
16 | COc1ccc(/C=C/C(=O)NCCCCCCNC2=C3C[C@@H](C)C[C@H](OC)[C@H](O)[C@@H](C)/C=C(\C)[C@H](OC(N)=O)[C@@H](OC)/C=C\C=C(/C)C(=O)NC(=CC2=O)C3=O)cc1O | 1470
17 | CO[C@H]1/C=C\C=C(/C)C(=O)NC2=CC(=O)C(NCC3CCN(C(=O)/C=C/c4ccc(O)cc4)CC3)=C(C[C@@H](C)C[C@H](OC)[C@H](O)[C@@H](C)/C=C(\C)[C@@H]1OC(N)=O)C2=O | 1680
18 | COc1cccc(/C=C/C(=O)NCCCCCCNC2=C3C[C@@H](C)C[C@H](OC)[C@H](O)[C@@H](C)/C=C(\C)[C@H](OC(N)=O)[C@@H](OC)/C=C\C=C(/C)C(=O)NC(=CC2=O)C3=O)c1OC | 6030
19 | COc1ccc(OC)c(/C=C/C(=O)NCCCCCCNC2=C3C[C@@H](C)C[C@H](OC)[C@H](O)[C@@H](C)/C=C(\C)[C@H](OC(N)=O)[C@@H](OC)/C=C\C=C(/C)C(=O)NC(=CC2=O)C3=O)c1 | 8150
20 | CO[C@H]1/C=C\C=C(/C)C(=O)NC2=CC(=O)C(NCCCCCCNC(=O)/C=C/c3ccccc3)=C(C[C@@H](C)C[C@H](OC)[C@H](O)[C@@H](C)/C=C(\C)[C@@H]1OC(N)=O)C2=O | 5140
21 | CO[C@H]1/C=C\C=C(/C)C(=O)NC2=CC(=O)C(NCCCCCCNC(=O)c3ccncn3)=C(C[C@@H](C)C[C@H](OC)[C@H](O)[C@@H](C)/C=C(\C)[C@@H]1OC(N)=O)C2=O | 920
22 | CO[C@H]1/C=C\C=C(/C)C(=O)NC2=CC(=O)C(NCCCCCCNC(=O)/C=C/c3ccccc3[N+](=O)[O-])=C(C[C@@H](C)C[C@H](OC)[C@H](O)[C@@H](C)/C=C(\C)[C@@H]1OC(N)=O)C2=O | 1610
23 | CO[C@H]1/C=C\C=C(/C)C(=O)NC2=CC(=O)C(NCCCCCCNC(=O)c3ccc([N+](=O)[O-])cc3)=C(C[C@@H](C)C[C@H](OC)[C@H](O)[C@@H](C)/C=C(\C)[C@@H]1OC(N)=O)C2=O | 2950

Row | Compound | IC50 [nM]
24 | CO[C@H]1/C=C\C=C(/C)C(=O)NC2=CC(=O)C(NCCCCCCNC(=O)c3ccc(Br)cc3)=C(C[C@@H](C)C[C@H](OC)[C@H](O)[C@@H](C)/C=C(\C)[C@@H]1OC(N)=O)C2=O | 4650
25 | CO[C@H]1/C=C\C=C(/C)C(=O)NC2=CC(=O)C(NCCCCCCNC(=O)/C=C/c3ccc(OC(F)(F)F)cc3)=C(C[C@@H](C)C[C@H](OC)[C@H](O)[C@@H](C)/C=C(\C)[C@@H]1OC(N)=O)C2=O | > 10000
26 | CO[C@H]1/C=C\C=C(/C)C(=O)NC2=CC(=O)C(NCCCCCCNC(=O)c3cccnc3)=C(C[C@@H](C)C[C@H](OC)[C@H](O)[C@@H](C)/C=C(\C)[C@@H]1OC(N)=O)C2=O | 500
27 | CO[C@H]1/C=C\C=C(/C)C(=O)NC2=CC(=O)C(NCCCCCCNC(=O)c3cccs3)=C(C[C@@H](C)C[C@H](OC)[C@H](O)[C@@H](C)/C=C(\C)[C@@H]1OC(N)=O)C2=O | 3030
28 | CO[C@H]1/C=C\C=C(/C)C(=O)NC2=CC(=O)C(NCCCCCCNC(=O)/C=C/c3cccc(C)c3)=C(C[C@@H](C)C[C@H](OC)[C@H](O)[C@@H](C)/C=C(\C)[C@@H]1OC(N)=O)C2=O | 2550
29 | CO[C@H]1/C=C\C=C(/C)C(=O)NC2=CC(=O)C(NCC3CCN(C(=O)c4ccccc4O)CC3)=C(C[C@@H](C)C[C@H](OC)[C@H](O)[C@@H](C)/C=C(\C)[C@@H]1OC(N)=O)C2=O | 1820
30 | COc1ccc(/C=C/C(=O)NCCCCCCNC2=C3C[C@@H](C)C[C@H](OC)[C@H](O)[C@@H](C)/C=C(\C)[C@H](OC(N)=O)[C@@H](OC)/C=C\C=C(/C)C(=O)NC(=CC2=O)C3=O)cc1 | 4540
31 | CO[C@H]1/C=C\C=C(/C)C(=O)NC2=CC(=O)C(NCCCCCCNC(=O)c3ccc(I)cc3)=C(C[C@@H](C)C[C@H](OC)[C@H](O)[C@@H](C)/C=C(\C)[C@@H]1OC(N)=O)C2=O | 3960
32 | CO[C@H]1/C=C\C=C(/C)C(=O)NC2=CC(=O)C(NCCCCNC(=O)c3ccccc3O)=C(C[C@@H](C)C[C@H](OC)[C@H](O)[C@@H](C)/C=C(\C)[C@@H]1OC(N)=O)C2=O | 4900
33 | CO[C@H]1/C=C\C=C(/C)C(=O)NC2=CC(=O)C(NCCCCCCNC(=O)c3ccc(Cl)cc3)=C(C[C@@H](C)C[C@H](OC)[C@H](O)[C@@H](C)/C=C(\C)[C@@H]1OC(N)=O)C2=O | 4100
34 | CO[C@H]1/C=C\C=C(/C)C(=O)NC2=CC(=O)C(NCCCCCCNC(=O)c3cncnc3)=C(C[C@@H](C)C[C@H](OC)[C@H](O)[C@@H](C)/C=C(\C)[C@@H]1OC(N)=O)C2=O | 1220
35 | CO[C@H]1/C=C\C=C(/C)C(=O)NC2=CC(=O)C(NCCCCCCNC(=O)c3ccccc3Cl)=C(C[C@@H](C)C[C@H](OC)[C@H](O)[C@@H](C)/C=C(\C)[C@@H]1OC(N)=O)C2=O | 3390
36 | CO[C@H]1/C=C\C=C(/C)C(=O)NC2=CC(=O)C(NCCCCCCNC(=O)/C=C/c3ccccc3C)=C(C[C@@H](C)C[C@H](OC)[C@H](O)[C@@H](C)/C=C(\C)[C@@H]1OC(N)=O)C2=O | 6910
37 | CO[C@H]1/C=C\C=C(/C)C(=O)NC2=CC(=O)C(NCCCCNC(=O)/C=C/c3ccc(O)cc3)=C(C[C@@H](C)C[C@H](OC)[C@H](O)[C@@H](C)/C=C(\C)[C@@H]1OC(N)=O)C2=O | 1660
38 | CO[C@H]1/C=C\C=C(/C)C(=O)NC2=CC(=O)C(NCCCCCCNC(=O)/C=C/c3ccc(O)cc3)=C(C[C@@H](C)C[C@H](OC)[C@H](O)[C@@H](C)/C=C(\C)[C@@H]1OC(N)=O)C2=O | 970
39 | CO[C@H]1/C=C\C=C(/C)C(=O)NC2=CC(=O)C(NCC3CCN(C(=O)c4cccnc4)CC3)=C(C[C@@H](C)C[C@H](OC)[C@H](O)[C@@H](C)/C=C(\C)[C@@H]1OC(N)=O)C2=O | 2030
40 | COc1ccc(/C=C/C(=O)NCCCCCCNC2=C3C[C@@H](C)C[C@H](OC)[C@H](O)[C@@H](C)/C=C(\C)[C@H](OC(N)=O)[C@@H](OC)/C=C\C=C(/C)C(=O)NC(=CC2=O)C3=O)c(OC)c1OC | 1860
41 | CO[C@H]1/C=C\C=C(/C)C(=O)NC2=CC(=O)C(NCCCCCCNC(=O)c3cc(O)cc(O)c3)=C(C[C@@H](C)C[C@H](OC)[C@H](O)[C@@H](C)/C=C(\C)[C@@H]1OC(N)=O)C2=O | 4350
42 | COc1cc(/C=C/C(=O)NCCCCCCNC2=C3C[C@@H](C)C[C@H](OC)[C@H](O)[C@@H](C)/C=C(\C)[C@H](OC(N)=O)[C@@H](OC)/C=C\C=C(/C)C(=O)NC(=CC2=O)C3=O)cc(OC)c1 | 1700
43 | CO[C@H]1/C=C\C=C(/C)C(=O)NC2=CC(=O)C(NCCCCNC(=O)c3ccncc3)=C(C[C@@H](C)C[C@H](OC)[C@H](O)[C@@H](C)/C=C(\C)[C@@H]1OC(N)=O)C2=O | 3450
44 | CO[C@H]1/C=C\C=C(/C)C(=O)NC2=CC(=O)C(NCCCCCCNC(=O)/C=C/c3cccc([N+](=O)[O-])c3)=C(C[C@@H](C)C[C@H](OC)[C@H](O)[C@@H](C)/C=C(\C)[C@@H]1OC(N)=O)C2=O | 1020
45 | CO[C@H]1/C=C\C=C(/C)C(=O)NC2=CC(=O)C(NCCCCCCNC(=O)c3ccccc3O)=C(C[C@@H](C)C[C@H](OC)[C@H](O)[C@@H](C)/C=C(\C)[C@@H]1OC(N)=O)C2=O | 6040
46 | CO[C@H]1/C=C\C=C(/C)C(=O)NC2=CC(=O)C(NCCCCCCNC(=O)c3cncc(Br)c3)=C(C[C@@H](C)C[C@H](OC)[C@H](O)[C@@H](C)/C=C(\C)[C@@H]1OC(N)=O)C2=O | 2350
